Experimental findings from US4371466A, “Mammalian collagenase inhibitors” (American Home Products Corporation, priority 1981, dated 1983) are described below.

Non-standard residues stand in square brackets, D forms with d. Residues, ends and D or L forms follow the SMILES beside them. pGlu = O=C1CC[C@@H](C(=O)O)N1

For the test, the system named is collagenase. Nature of the test: Collagenase inhibition, acetyl 14C collagen hydrolysis (procedure of Sellers et al.). The format is biochemical. As to conditions: 2 mM inhibitor, 35° C., 5 to 18 hours, Tris-CaCl2 pH 7.4, versus control devoid of inhibitor. The method, then: The collagen is acetyl ^14 C collagen. The samples are centrifuged and an aliquot removed for assay on a scintillation counter. Because native collagen forms insoluble fibrils under the test conditions, the supernatant liquid contains radioactivity as a measure of hydrolysis. The collagenase activity in the presence of 2 mM inhibitor is compared to activity in a control devoid of inhibitor and the results reported as percent inhibition of collagenase activity. Each of the compounds of this invention have been established as active collagenase inhibitors by the test procedure.
The following examples illustrate the preparation of typical representative compounds of the invention. After each preparative example, the percent inhibition of collagenase activity at the 2 mM level of inhibition in accordance with the previously described standart testing procedure is provided.

The molecule “Ac-PQGIAG-NH2 [Example 3, CH3 CO-Pro-Gln-Gly-Ile-Ala-Gly-NH2]” had a Percent inhibition collagenase of 35%.

`CC[C@H](C)[C@H](NC(=O)[C@@H](N)CS)C(N)=O` [Example 1, H-L-Cys-L-Ile-NH2] (H-Cys-Ile-NH2): the Percent inhibition collagenase is given as 35%.

Molecule `CC[C@H](C)[C@H](NC(=O)[C@H](CS)NC(=O)[C@@H]1CCC(=O)N1)C(N)=O` [Example 2, L-pGlu-L-Cys-L-Ile-NH2] ([pGlu]-Cys-Ile-NH2) came in with a Percent inhibition collagenase of 75%.
